Results published in patent US20040175447A1, “Feeds and fertilizers containing pentacyclic triterpenes” (The Nisshin OilliO, Ltd., priority 2001, published 2004).

Test system: B-16 melanoma cells
Assay: Evaluation of melanin production-inhibitory effect (cell-whitening degree of cultured B-16 melanoma cells); for Melanin production-inhibitory effect (cell-whitening degree): key: ++: The whitening degree is higher than that observed for the positive control; +: The whitening degree is almost identical to that observed for the positive control; ±: The whitening degree is not higher than that observed for the positive control, but higher than that observed for the control; −: The whitening degree is almost identical to that observed for the control
Assay type: cell-based
Conditions: for Melanin production-inhibitory effect (cell-whitening degree): positive control 450 ppm vitamin C-magnesium phosphate; for melanogenesis-inhibitory function relative to that observed when 450 ppm of vitamin C-magnesium phosphate (standard) is added: from Table 1
Method: In the present invention, the melanogenesis-inhibitory effect is evaluated and compared on the basis of the results of tests for examining the melanogenesis-inhibitory function in which B-16 melanoma cells are cultivated, as a primary evaluation. Moreover, a feed is, for instance, practically prepared and its effectiveness in the melanogenesis-inhibition is evaluated as a secondary evaluation. It has been confirmed that the pentacyclic triterpenes whose strong melanogenesis-inhibitory function is confirmed by the cell culture test as the primary evaluation also show an excellent effect in the secondary evaluation test. In addition, it has also been confirmed that there is a correlation between the results obtained in these two evaluation methods.
If the culture system includes a melanogenesis-inhibitory substance during the proliferation thereof, the blackening of the cells is suppressed while the whitening thereof is relatively promoted. Accordingly, the melanogenesis-inhibitory function of the substance can be evaluated by comparing the degree of whitening observed for the substance with the degree of blackening observed for a control. The evaluated results of the melanogenesis-inhibitory effect obtained in this cell culture system clearly indicate that the pentacyclic triterpenes and/or physiologically acceptable salts thereof or derivatives thereof have quite strong melanogenesis-inhibitory effects. For instance, when comparing the effects thereof with that achieved by vitamin C-magnesium phosphate, the melanogenesis-inhibitory effect is about 100 to 200 times, for maslinic acid, about 100 to 200 times, for maslinic acid salts, about 10 to 100 times, for erythrodiol, about 30 to 120 times, for uvaol, about 30 to 120 times, for betulinic acid, about 10 to 100 times, for betulin, about 100 to 200 times, for ethyl maslinate, about 50 to 150 times, for acetylated maslinic acid, about 30 to 120 times, for triethylsilylated maslinic acid, about 50 to 150 times, for stearoyl derivative of ethyl maslinate, about 10 to 100 times, for acetylated erythrodiol, about 10 to 100 times, for acetylated uvaol, about 10 to 100 times, for ethyl betulinate, and about 5 to 50 times, for acetylated betulin, that observed for the vitamin C-magnesium phosphate.
A culture medium was dispensed to wells of a 6-well plate (2 mL/well each), followed by inoculation of a desired amount of B-16 melanoma cells on each well, allowing the wells to stand at 37° C. and 5% CO2 to thus cultivate the cells. On the day subsequent thereto, a candidate sample (pentacyclic triterpenes) solution prepared was added to and mixed with the culture medium containing the cells and the cultivation was continued. The culture medium was replaced with fresh one on the 5th day from the initiation of the cultivation and the prepared sample solution was again added to the wells. On the next day, the culture medium was removed to recover the cells, followed by the washing of these cells with PBS (phosphate buffered physiological saline) and the subsequent evaluation of the cell-whitening degree. In this respect, the melanogenesis-inhibitory function was evaluated by comparing the cell-whitening degree thus obtained with that observed when using 450 ppm of vitamin C-magnesium phosphate as a known whitening agent (a positive control) and that obtained when any candidate sample was not used (control), according to the following evaluation criteria.
The evaluation criteria for the cell-whitening degree are as follows:
Regarding the results listed in Table 1, the whitening degree observed when adding 450 ppm of vitamin C-magnesium phosphate is selected as a standard.

| Structure (SMILES) | Melanin production-inhibitory effect (cell-whitening degree) (2 ppm) | Melanin production-inhibitory effect (cell-whitening degree) (6 ppm) | Melanin production-inhibitory effect (cell-whitening degree) (10 ppm) | Melanin production-inhibitory effect (cell-whitening degree) (25 ppm) | Melanin production-inhibitory effect (cell-whitening degree) (50 ppm) | melanogenesis-inhibitory function relative to that observed when 450 ppm of vitamin C-magnesium phosphate (standard) is added | Melanin production-inhibitory effect (cell-whitening degree) (4 ppm) | Melanin production-inhibitory effect (cell-whitening degree) (8 ppm) |
| --- | --- | --- | --- | --- | --- | --- | --- | --- |
| CC1(C)CC[C@]2(CO)CC[C@]3(C)C(=CC[C@@H]4[C@@]5(C)CC[C@H](O)C(C)(C)[C@@H]5CC[C@]43C)[C@@H]2C1 [Erythrodiol] | ± | ± | ± | + | + | about 20 times |  |  |
| CCOC(=O)[C@]12CC[C@@H](C)[C@H](C)[C@H]1C1=CC[C@@H]3[C@@]4(C)CC[C@H](O)C(C)(C)[C@@H]4CC[C@@]3(C)[C@]1(C)CC2 [Compound of Synthesis 6, Ethyl Ursolate] | ± | ++ | ++ |  |  | about 110 times | + | ++ |
| C[C@H]1[C@H](C)CC[C@]2(CO)CC[C@]3(C)C(=CC[C@@H]4[C@@]5(C)CC[C@H](O)C(C)(C)[C@@H]5CC[C@]43C)[C@H]12 [Uvaol] | − | − | + | + | + | about 40 times |  |  |
